# Strand notation (5' to 3'): a small letter for the sugar, then the base; units joined by * are phosphorothioate-linked, units joined directly phosphodiester-linked; [ ] holds rarer units or linkages, { } end groups; capitals alone tell only the bases. e = 2'-O-(2-methoxyethyl) (MOE); l = locked nucleic acid (LNA); [5mC] = 5-methylcytosine; d = 2'-deoxy (DNA)
# Legend:
# Format in all cases: in vivo, mouse
# [1] = Transaminase levels, liver and spleen weights, body weight (Example 6, Table 47); settings: 8 μmol/kg single i.p.; 72 h; Balb/c mice
# Description: (§1) Each dose group consisted of four animals. Shown in Table 46 are the sequences and motifs of the PTEN antisense compounds used in this study. Bolded residues indicate 2′-O-methoxyethyl moieties (2′-MOE) and italicized residues indicate Methyleneoxy BNA nucleotides. Each antisense compound comprises phosphorothioate linkages throughout. In addition, the cytosine residues in the gap of ISIS 384073 and in the wings of ISIS 392056, ISIS 392057, ISIS 392061 and ISIS 392063 are replaced with 5-methylcytosines. Antisense compounds target published PTEN nucleic acids, including Genbank Accession No. U92437.1 (SEQ ID NO: 13).
# (§2) Mice were sacrificed 72 hours following injection to determine serum transaminase levels (Table 47); liver and spleen weights (Table 47); and PTEN mRNA levels in liver, kidney and fat (Table 48), according to procedures described herein and well know to one of ordinary skill in the art.
# PTEN mRNA = PTEN mRNA levels in liver, kidney and fat, Balb/c mice, single 8 μmol/kg i.p. (Example 6, Table 48); settings: 8 μmol/kg single i.p., 72 h, saline = 100
# Description: as §1, §2
# [2] = Triglyceride, cholesterol and glucose levels, pre-bleed and post-bleed (Example 4, Table 34); parameters: TRIG Pre-Bleed / TRIG Post-Bleed / CHOL Pre-Bleed / CHOL Post-Bleed / Glucose Pre-Bleed / Glucose Post-Bleed: unit not given here; settings: C57/BL6 mice; for CHOL Pre-Bleed / Glucose Pre-Bleed / TRIG Pre-Bleed: pre-treatment bleed; for CHOL Post-Bleed / Glucose Post-Bleed / TRIG Post-Bleed: post-treatment bleed, 48 h
# [3] = Total and full-length antisense compound concentrations in liver and kidney (Example 4, Table 42); settings: C57/BL6 mice; single i.p. dose; 48 h; dose not given
# Protocol: (§3) Eight-week old male C57/BL6 mice (Jackson Laboratory, Bar Harbor, Me.) were administered a single dose of GCGR oligonucleotide by intraperitoneal injection at a concentration of […]. Each dose group consisted of four animals. Shown in Table 31 are the sequences, motifs and conjugates of the GCGR antisense compounds used in this study. Bolded residues indicate 2′-O-methoxyethyl (2′-MOE) moieties. All compounds comprise phosphorothioate internucleoside linkages throughout and each cytosine is replaced with 5-methylcytosine. ISIS 386626, ISIS 386627 and ISIS 386628 further comprise a C16 conjugate group attached to the 2′-O position of the sugar via a diamide linkage (2′-OCH2C(═O)N(H)(CH2)4N(H)C(═O)—(CH2)15CH3). GCGR antisense compounds target published GCGR sequences, including Genbank® Accession No. BC031885.1 (SEQ ID NO: 7).
# (§4) Mice were sacrificed 48 hours following injection to determine serum transaminase levels (Table 32); liver, white adipose tissue (WAT), spleen and kidney weight (Table 33); cholesterol, triglyceride and glucose levels (Table 34); GCGR mRNA levels (Tables 35-41); and full-length and total oligonucleotide concentration in liver and kidney (Table 42). Endpoints were assessed using methods described herein and well known to those of ordinary skill in the art. Data is included from a pre-treatment bleed (Pre-Bleed) and post-treatment bleed (Post-Bleed).
# Treatment with the 2-10-2 MOE gapmers led to a significant dose-dependent decrease in GCGR mRNA expression. […] To determine whether the observed increase in efficiency with the short antisense compounds is due to an increase in antisense compound accumulation, full-length and total antisense compound concentration in the liver and kidney were determined.
# [4] = Organ weights: liver, white adipose tissue, spleen, kidney (Example 4, Table 33); settings: 48 h, C57/BL6 mice
# Protocol: as §3, §4
# [5] = ALT & AST levels, C57/BL6 mice (Example 4, Table 32); settings: for ALT Pre-Bleed / AST Pre-Bleed: pre-treatment bleed; for ALT Post-Bleed / AST Post-Bleed: 48 hours following injection
# Protocol: as §3, §4
# GCGR mRNA = GCGR mRNA levels in liver of C57/BL6 mice, single i.p. dose (Example 4, Tables 35-41); settings: 48 h
# Protocol: as §3, §4
# To determine whether the phenotypic changes shown above correlated with a decrease in GCGR mRNA, treated animals were evaluated for levels of target mRNA in liver by real time PCR according to methods described herein. Tables 35 to 41 show results from direct comparisons of the antisense compounds targeting GCGR nucleic acid for their effect on target expression. Results are expressed as percent of saline control.
substance,measurement,setting,value
"141923 (antisense CCTTCCCTGAAGGTTCCTCC; sugars from the 5' end e5 d10 e5, all phosphorothioate, methylation of C not given here) [compound 141923]",ALT,[1],34.8 IU/L
same,AST,[1],89.5 IU/L
same,Liver Weight,[1],101 % Saline
same,Spleen Weight,[1],108 % Saline
same,% PTEN mRNA levels in Fat,PTEN mRNA,118%
same,% PTEN mRNA levels in Kidney,PTEN mRNA,133%
same,% PTEN mRNA levels in Liver,PTEN mRNA,102%
384073 (antisense lG*lC*lT*dA*dG*d[5mC]*d[5mC]*dT*d[5mC]*dT*dG*dG*dA*lT*lT*lT) [compound 384073],ALT,[1],29.3 IU/L
same,AST,[1],57.8 IU/L
same,Liver Weight,[1],115 % Saline
same,Spleen Weight,[1],111 % Saline
same,% PTEN mRNA levels in Fat,PTEN mRNA,77%
same,% PTEN mRNA levels in Kidney,PTEN mRNA,74%
same,% PTEN mRNA levels in Liver,PTEN mRNA,24%
386628 (antisense TGTCTTGCTGCTTT; chemistry not fully specified) [compound 386628],CHOL Pre-Bleed,[2]; 6.25 mg/kg group,83
same,Glucose Pre-Bleed,[2]; 6.25 mg/kg group,228
same,TRIG Pre-Bleed,[2]; 6.25 mg/kg group,117
same,CHOL Post-Bleed,[2]; 6.25 mg/kg single i.p.,85
same,Glucose Post-Bleed,[2]; 6.25 mg/kg single i.p.,229
same,TRIG Post-Bleed,[2]; 6.25 mg/kg single i.p.,121
same,CHOL Pre-Bleed,[2]; 12.5 mg/kg group,90
same,Glucose Pre-Bleed,[2]; 12.5 mg/kg group,231
same,TRIG Pre-Bleed,[2]; 12.5 mg/kg group,90
same,CHOL Post-Bleed,[2]; 12.5 mg/kg single i.p.,94
same,Glucose Post-Bleed,[2]; 12.5 mg/kg single i.p.,240
same,TRIG Post-Bleed,[2]; 12.5 mg/kg single i.p.,123
same,CHOL Pre-Bleed,[2]; 25 mg/kg group,84
same,Glucose Pre-Bleed,[2]; 25 mg/kg group,210
same,TRIG Pre-Bleed,[2]; 25 mg/kg group,102
same,CHOL Post-Bleed,[2]; 25 mg/kg single i.p.,85
same,Glucose Post-Bleed,[2]; 25 mg/kg single i.p.,223
same,TRIG Post-Bleed,[2]; 25 mg/kg single i.p.,129
same,CHOL Pre-Bleed,[2]; 50 mg/kg group,88
same,Glucose Pre-Bleed,[2]; 50 mg/kg group,209
same,TRIG Pre-Bleed,[2]; 50 mg/kg group,102
same,CHOL Post-Bleed,[2]; 50 mg/kg single i.p.,95
same,Glucose Post-Bleed,[2]; 50 mg/kg single i.p.,232
same,TRIG Post-Bleed,[2]; 50 mg/kg single i.p.,98
same,"Full-length antisense compound concentration, Kidney",[3],305 µg/g
same,"Full-length antisense compound concentration, Liver",[3],202 µg/g
same,"Total antisense compound concentration, Kidney",[3],496 µg/g
same,"Total antisense compound concentration, Liver",[3],286 µg/g
same,Organ weight: Kidney,[4]; 6.25 mg/kg single i.p.,102 % saline control
same,Organ weight: Liver,[4]; 6.25 mg/kg single i.p.,98 % saline control
same,Organ weight: Spleen,[4]; 6.25 mg/kg single i.p.,151 % saline control
same,Organ weight: WAT,[4]; 6.25 mg/kg single i.p.,106 % saline control
same,Organ weight: Kidney,[4]; 12.5 mg/kg single i.p.,99 % saline control
same,Organ weight: Liver,[4]; 12.5 mg/kg single i.p.,101 % saline control
same,Organ weight: Spleen,[4]; 12.5 mg/kg single i.p.,114 % saline control
same,Organ weight: WAT,[4]; 12.5 mg/kg single i.p.,111 % saline control
same,Organ weight: Kidney,[4]; 25 mg/kg single i.p.,109 % saline control
same,Organ weight: Liver,[4]; 25 mg/kg single i.p.,102 % saline control
same,Organ weight: Spleen,[4]; 25 mg/kg single i.p.,113 % saline control
same,Organ weight: WAT,[4]; 25 mg/kg single i.p.,97 % saline control
same,Organ weight: Kidney,[4]; 50 mg/kg single i.p.,99 % saline control
same,Organ weight: Liver,[4]; 50 mg/kg single i.p.,104 % saline control
same,Organ weight: Spleen,[4]; 50 mg/kg single i.p.,126 % saline control
same,Organ weight: WAT,[4]; 50 mg/kg single i.p.,100 % saline control
same,ALT Pre-Bleed,[5]; 6.25 mg/kg dose group,22 IU/L
same,AST Pre-Bleed,[5]; 6.25 mg/kg dose group,40 IU/L
same,ALT Pre-Bleed,[5]; 12.5 mg/kg dose group,28 IU/L
same,AST Pre-Bleed,[5]; 12.5 mg/kg dose group,42 IU/L
same,ALT Pre-Bleed,[5]; 25 mg/kg dose group,24 IU/L
same,AST Pre-Bleed,[5]; 25 mg/kg dose group,40 IU/L
same,ALT Pre-Bleed,[5]; 50 mg/kg dose group,28 IU/L
same,AST Pre-Bleed,[5]; 50 mg/kg dose group,44 IU/L
same,ALT Post-Bleed,[5]; single i.p. dose 6.25 mg/kg,29 IU/L
same,AST Post-Bleed,[5]; single i.p. dose 6.25 mg/kg,59 IU/L
same,ALT Post-Bleed,[5]; single i.p. dose 12.5 mg/kg,35 IU/L
same,AST Post-Bleed,[5]; single i.p. dose 12.5 mg/kg,75 IU/L
same,ALT Post-Bleed,[5]; single i.p. dose 25 mg/kg,32 IU/L
same,AST Post-Bleed,[5]; single i.p. dose 25 mg/kg,57 IU/L
same,ALT Post-Bleed,[5]; single i.p. dose 50 mg/kg,68 IU/L
same,AST Post-Bleed,[5]; single i.p. dose 50 mg/kg,76 IU/L
same,GCGR mRNA levels in liver,"GCGR mRNA; 6.25 mg/kg single i.p., Table 38 comparison ISIS 148364 & ISIS 386628",77% of saline control
same,GCGR mRNA levels in liver,"GCGR mRNA; 6.25 mg/kg single i.p., Table 41 comparison ISIS 386628 & ISIS 386594",97% of saline control
same,GCGR mRNA levels in liver,"GCGR mRNA; 12.5 mg/kg single i.p., Table 38 comparison ISIS 148364 & ISIS 386628",53% of saline control
same,GCGR mRNA levels in liver,"GCGR mRNA; 12.5 mg/kg single i.p., Table 41 comparison ISIS 386628 & ISIS 386594",38% of saline control
same,GCGR mRNA levels in liver,"GCGR mRNA; 25 mg/kg single i.p., Table 38 comparison ISIS 148364 & ISIS 386628",18% of saline control
same,GCGR mRNA levels in liver,"GCGR mRNA; 25 mg/kg single i.p., Table 41 comparison ISIS 386628 & ISIS 386594",13% of saline control
same,GCGR mRNA levels in liver,"GCGR mRNA; 50 mg/kg single i.p., Table 38 comparison ISIS 148364 & ISIS 386628",2% of saline control
same,GCGR mRNA levels in liver,"GCGR mRNA; 50 mg/kg single i.p., Table 41 comparison ISIS 386628 & ISIS 386594",4% of saline control
391172 (antisense lC*lT*dA*dG*dC*dC*dT*dC*dT*dG*dG*dA*lT*lT*lT) [compound 391172],ALT,[1],32.8 IU/L
same,AST,[1],48.5 IU/L
same,Liver Weight,[1],120 % Saline
same,Spleen Weight,[1],112 % Saline
same,% PTEN mRNA levels in Fat,PTEN mRNA,101%
same,% PTEN mRNA levels in Kidney,PTEN mRNA,63%
same,% PTEN mRNA levels in Liver,PTEN mRNA,18%
392061 (antisense l[5mC]*lT*dA*dG*dC*dC*dT*dC*dT*dG*dG*dA*lT*lT) [compound 392061],ALT,[1],42.0 IU/L
same,AST,[1],189 IU/L
same,Liver Weight,[1],123 % Saline
same,Spleen Weight,[1],111 % Saline
same,% PTEN mRNA levels in Fat,PTEN mRNA,85%
same,% PTEN mRNA levels in Kidney,PTEN mRNA,61%
same,% PTEN mRNA levels in Liver,PTEN mRNA,24%
